Legend:
[1] = molecular target: T1, RG form of human PTHR-1 (Homo sapiens, UniProt Q03431); experiment: Radio-ligand competition binding to RG form of human PTHR-1 (COS-7 membranes, 125I-M-PTH(1-15) tracer, high affinity Gαs mutant); conditions: Table 1; 125I-M-PTH(1-15) tracer, Gαs mutant; read-out: RG IC50, nM, Binding (hPTHR-1)
T1 construct: expressed in transfected cells; host or cells: COS-7
T1 sequence (Q03431 27-593): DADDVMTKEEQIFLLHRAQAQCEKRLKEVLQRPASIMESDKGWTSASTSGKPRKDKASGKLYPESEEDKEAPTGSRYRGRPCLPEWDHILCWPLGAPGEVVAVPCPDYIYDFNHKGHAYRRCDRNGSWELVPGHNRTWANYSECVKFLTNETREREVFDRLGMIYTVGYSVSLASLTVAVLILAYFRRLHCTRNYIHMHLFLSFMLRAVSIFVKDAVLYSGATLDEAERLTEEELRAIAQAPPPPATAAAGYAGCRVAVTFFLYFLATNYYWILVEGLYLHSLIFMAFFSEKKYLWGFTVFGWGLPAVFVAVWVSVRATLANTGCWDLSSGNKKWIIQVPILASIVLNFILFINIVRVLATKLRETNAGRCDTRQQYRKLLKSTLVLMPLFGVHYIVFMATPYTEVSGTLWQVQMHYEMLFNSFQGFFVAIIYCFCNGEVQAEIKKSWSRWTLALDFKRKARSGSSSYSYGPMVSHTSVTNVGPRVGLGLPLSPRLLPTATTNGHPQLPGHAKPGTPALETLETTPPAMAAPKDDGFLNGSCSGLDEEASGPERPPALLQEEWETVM
Description: (§1) Data are means (±SEM) of n≥4 experiments, each performed in duplicate.

[2] = molecular target: T2, WT human PTHR-1 (Homo sapiens, UniProt Q03431); experiment: cAMP GloSensor dose-response in GP-2.3 cells expressing human PTHR-1; assay type: cell-based; conditions: for cAMP (hPTHR-1) Max: luminescence counts per second relative to PTH(1-34); for cAMP (hPTHR-1) Max / Max: 12-16 minutes after ligand addition; for Max: Table 6, mean ± SEM
T2 construct: bioactivity of the resulting compound in full-length hPTHR-1 and a truncated version; expressed in transfected cells
T2 sequence (Q03431 27-593): T1 sequence (Q03431 27-593)
Summary of the method: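 Confluent cells preloaded with 0.5 mM d-luciferin at room temperature until luminescence baseline stabilised (30 min), then given varying agonist concentrations. Luminescence time course recorded after α/β-peptide addition. Means ±SEM of n>4 experiments, each in duplicate.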

[3] = molecular target: T3, WT rat PTHR-1 (Rattus norvegicus, UniProt P25961); experiment: cAMP GloSensor dose-response in GR-35 cells expressing rat PTHR-1; assay type: cell-based; conditions: Table 7; GR-35 cells, 12-16 minutes after ligand addition; mean ± SEM
T3 construct: expressed in transfected cells
T3 sequence (P25961 27-591): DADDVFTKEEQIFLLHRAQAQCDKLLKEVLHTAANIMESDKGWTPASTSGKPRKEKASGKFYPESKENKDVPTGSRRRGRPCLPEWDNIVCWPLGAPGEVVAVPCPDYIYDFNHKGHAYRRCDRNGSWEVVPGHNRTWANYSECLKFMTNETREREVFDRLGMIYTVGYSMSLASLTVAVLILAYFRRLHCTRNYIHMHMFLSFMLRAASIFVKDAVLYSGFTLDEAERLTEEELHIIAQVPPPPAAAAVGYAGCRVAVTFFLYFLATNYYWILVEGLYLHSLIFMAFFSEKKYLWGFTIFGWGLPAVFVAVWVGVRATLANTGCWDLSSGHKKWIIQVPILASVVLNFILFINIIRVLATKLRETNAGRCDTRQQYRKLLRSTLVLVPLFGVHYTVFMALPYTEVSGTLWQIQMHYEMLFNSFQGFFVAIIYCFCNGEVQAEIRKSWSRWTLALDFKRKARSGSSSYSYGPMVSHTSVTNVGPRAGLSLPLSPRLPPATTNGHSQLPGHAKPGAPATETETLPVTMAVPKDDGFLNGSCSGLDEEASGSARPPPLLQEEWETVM
Procedure: FIGS. 9A, 9B, and 9C constitute a series of graphs depicting cAMP responses in GR-35 cells expressing rat PTHR-1-WT. […] Data are means (±SEM) of n>4 experiments, each performed in duplicate.
For cAMP dose-response assays, monolayers of confluent HEK 293 cells were pre-incubated with buffer containing d-luciferin (0.5 mM) in 96 well plates at room temperature until a stable baseline level of luminescence was established (30 min). Varying concentrations of agonist were then added, and the time course of luminescence response was recorded using a Perkin Elmer plate reader following α/β-peptide addition.

[4] = molecular target: T4, RG form of rat PTHR-1 (Rattus norvegicus, UniProt P25961); experiment: Radio-ligand competition binding to RG form of rat PTHR-1; conditions: Table 5; rat PTHR-1; mean ± SEM; read-out: RG -log (IC50) (converted)
T4 construct: expressed in transfected cells; host or cells: COS-7
T4 sequence (P25961 27-591): T3 sequence (P25961 27-591)
Description: as §1

Row | SMILES | IC50 [1] | EC50 ([2]; Table 1, GP-2.3 cells, read-out: cAMP (hPTHR-1) EC50) | cAMP (hPTHR-1) Max ([2]; Table 1) | Max ([2]; GP-2.3 cells) | Max [3] | IC50 [4]
1 | CC[C@H](C)[C@H](NC(=O)[C@H](CCC(=O)O)NC(=O)[C@H](CO)NC(=O)[C@@H](NC(=O)[C@@H](N)CO)C(C)C)C(=O)N[C@@H](CCC(N)=O)C(=O)N[C@@H](CC(C)C)C(=O)N[C@@H](CCSC)C(=O)N[C@@H](Cc1c[nH]cn1)C(=O)N[C@@H](CC(N)=O)C(=O)N[C@@H](CC(C)C)C(=O)NCC(=O)N[C@@H](CCCCN)C(=O)N[C@@H](Cc1c[nH]cn1)C(=O)N[C@@H](CC(C)C)C(=O)N[C@@H](CC(N)=O)C(=O)N[C@@H](CO)CC(=O)N[C@@H](CCSC)C(=O)N[C@@H](CCC(=O)O)C(=O)N[C@@H](CCCNC(=N)N)C(=O)N[C@H](CC(=O)N[C@@H](CCC(=O)O)C(=O)N[C@@H](Cc1c[nH]c2ccccc12)C(=O)N[C@@H](CC(C)C)C(=O)N[C@@H](CCCNC(=N)N)CC(=O)N[C@@H](CCCCN)C(=O)N[C@@H](CCCCN)C(=O)N[C@@H](CC(C)C)C(=O)N[C@@H](CCC(N)=O)CC(=O)N[C@@H](CC(=O)O)C(=O)N[C@H](C(=O)N[C@@H](Cc1c[nH]cn1)C(=O)N[C@@H](CC(N)=O)CC(=O)N[C@@H](Cc1ccccc1)C(N)=O)C(C)C)C(C)C [C5] | 0.4 nM | 0.2 nM | 1.01 | 219 ± 39 luminescence counts per second × 10^−3 | 48 ± 17 luminescence counts per second × 10−3 | 
2 | CC[C@H](C)[C@H](NC(=O)[C@H](CCC(=O)O)NC(=O)[C@H](CO)NC(=O)[C@@H](NC(=O)[C@@H](N)CO)C(C)C)C(=O)N[C@@H](CCC(N)=O)C(=O)N[C@@H](CC(C)C)C(=O)N[C@@H](CCSC)C(=O)N[C@@H](Cc1c[nH]cn1)C(=O)N[C@@H](CC(N)=O)C(=O)N[C@@H](CC(C)C)C(=O)NCC(=O)N[C@@H](CCCCN)C(=O)N[C@@H](Cc1c[nH]cn1)C(=O)N[C@@H](CC(C)C)C(=O)N[C@@H](CC(N)=O)C(=O)N[C@@H](CO)C(=O)N[C@@H](CCSC)CC(=O)N[C@@H](CCC(=O)O)C(=O)N[C@@H](CCCNC(=N)N)C(=O)N[C@H](C(=O)N[C@@H](CCC(=O)O)CC(=O)N[C@@H](Cc1c[nH]c2ccccc12)C(=O)N[C@@H](CC(C)C)C(=O)N[C@@H](CCCNC(=N)N)C(=O)N[C@@H](CCCCN)CC(=O)N[C@@H](CCCCN)C(=O)N[C@@H](CC(C)C)C(=O)N[C@@H](CCC(N)=O)C(=O)N[C@@H](CC(=O)O)CC(=O)N[C@H](C(=O)N[C@@H](Cc1c[nH]cn1)C(=O)N[C@@H](CC(N)=O)C(=O)N[C@H](CC(N)=O)Cc1ccccc1)C(C)C)C(C)C [D5] |  |  | 1.03 | 223 ± 36 luminescence counts per second × 10^−3 | 43 ± 17 luminescence counts per second × 10−3 | 1.74 nM

Reference: US10501518B2 (priority 2013, dated 2019)
